Conditions: daily for 42 days, with olaparib 150 mg 3 days/week
From the text: Up to 3 cycles were delivered in the absence of disease progression or unacceptable toxicity. Patients progression free after 3 cycles were eligible for further cycles if approved by sponsor. […] Neurosurgical resection was mandatory in the expansion cohort.
If 2 or more of 6 patients at one dose level experienced a dose limiting toxicity (DLT), this was considered “not tolerated” and designated the maximum administered dose (MAD).

Cn1nnc2c(C(N)=O)ncn2c1=O [TMZ, temozolomide]
MTD / RP2D, TMZ dose: 75 mg/m^2
